Assay results from patent publication US10935560B2, “Method and kit for identifying lupus anticoagulant (LA) associated with antiphospholipid syndrome” (Instrumentation Laboratory Company, priority 2016, dated 2021).
Entries after “also recorded” stand apart in the source; their conditions may differ.

Tests used:
Assay type in all cases: biochemical, human
[1] = tested on: LA positive plasma sample; test: APTT-based silica clotting time (SCT Screen / SCT Confirm) assay, 1:1 mixing study
Text: (§1) The results of the LA screening assays are expressed by Screen Ratio (Rs), an assay done in the presence of low levels of phospholipid, Confirm Ratio (Re), an assay done in the presence of elevated levels of phospholipid, Screen-to-Confirm Ratio (R) and Normalized Screen-to-Confirm Ratio (NR) defined as follows: […]
(§2) For each of the assays above, irrespective of the clotting inhibitor used in the assay, the measured screen assay clotting time of a patient sample is compared to the measured screen assay clotting time of normal platelet poor plasma and expressed as a ratio (Rs). Additionally, the measured confirm assay clotting time of a patient sample is compared to the measured confirm assay clotting time of normal platelet poor plasma and expressed as a ratio (Rc). A normalized ratio (NR) is expressed as Rs/Rc. The NR is compared to a cutoff ratio established from normal, healthy subjects.
(§3) D-phenylalanyl-1-prolyl-1-arginine-chloromethyl ketone (PPACK) is a synthetic peptide that irreversibly binds to the catalytic site of thrombin. Referring to FIGS. 1-3, the use of PPACK in an SCT assay is shown where a plasma test sample was mixed with a LA negative plasma sample pool in a 1:1 ratio during testing (i.e., in a mixing study setting). By a mixing study, clotting factors that are present in normal plasma are added to the test plasma suspected of having a coagulation disorder.
(§4) Referring to FIGS. 1A-B, while the effect of PPACK on SCT Screen and SCT Confirm is similar for the LA negative sample, PPACK has much greater impact on SCT Screen than on SCT Confirm for the LA positive samples.
The effect of PPACK on LA detection is further analyzed on the LA positive sample diluted with LA negative sample in different ratios (1:1 and 1:3 of LA positive: LA Negative). When the LA positive sample was diluted 4-fold with LA negative sample, the LA was not detectable in the absence of PPACK (NR: […]) thereby underscoring the increased sensitivity of the method disclosed herein.

[2] = tested on: LA negative sample (platelet poor NPP); test: as above; conditions: for Screen-to-Confirm Ratio (R) of SCT Assay: LA negative sample
Text: as §1, §2, §3, §4

[3] = tested on: LA positive plasma sample; test: dRVVT Screen / dRVVT Confirm test, 1:1 mixing study; conditions: for NR of dRVVT test: 1000 ng/ml PPACK
Text: as §1, §2

[4] = tested on: normal pooled plasma (NPP); test: as above
Text: as §1, §2

[5] = tested on: patient plasma samples (LA negative, factor deficient, LA positive); test: HemosIL dRVVT Screen and dRVVT Confirm in the presence of PPACK, 1:1 mixing study setting, patient samples; conditions: 350 nM PPACK
Text: as §1
as §2, with “subjects. […]” for “subjects.”
The study reported the normalized ratio correctly for all plasma samples and addressed issues with factor deficiency (Table 2).

[6] = sample 0114 LA NEG, LA Negative Pool
[7] = sample 0114 S03, FVIIIDef (con)
[8] = sample 0114 S04, FVIIIDef (con)
[9] = sample 0114 S05, FVIII (con)/vWF Def
[10] = sample 0114 S06, FVIII (con)/vWF Def

D-phenylalanyl-1-prolyl-1-arginine-chloromethyl ketone [PPACK]
Normalized Ratio (NR) of SCT Assay ([1]; LA positive sample 1:1 diluted with NPP, 1000 ng/ml PPACK, automated mixing study 1:1): 1.82
Normalized Ratio (NR) of SCT Assay ([1]; LA positive sample 1:3 diluted with NPP, 1000 ng/ml PPACK, automated mixing study 1:1): 1.46
Normalized Ratio (NR) of SCT Assay ([1]; LA positive sample diluted 4-fold with LA negative sample, 1000 nM PPACK (1.08 in the absence of PPACK)): 1.46
Normalized Ratio (NR) of SCT Assay ([1]; LA positive sample undiluted, 1000 ng/ml PPACK, automated mixing study 1:1 with NPP/PPACK): 2.34
Screen-to-Confirm Ratio (R) of SCT Assay ([1]; LA positive sample, 1000 nM PPACK (1.09 in the absence of PPACK)): 1.82
Screen-to-Confirm Ratio (R) of SCT Assay ([2]; 100 nM PPACK (0.81 at 0 nM)): 0.83
Screen-to-Confirm Ratio (R) of SCT Assay ([2]; 1000 nM PPACK (0.81 at 0 nM)): 0.78
Change of Screen-to-Confirm Ratio of SCT Assay ([2]; NPP / LA negative sample, increasing PPACK concentrations): remained the same; also recorded: decreased slightly
NR of dRVVT test ([3]; LA positive sample 1:1 diluted with NPP, automated mixing study 1:1): 1.42
NR of dRVVT test ([3]; LA positive sample 1:3 diluted with NPP, automated mixing study 1:1): 1.19
NR of dRVVT test ([3]; LA positive sample undiluted, automated mixing study 1:1 with NPP/PPACK): 1.76
Screen-to-Confirm Ratio of dRVVT test ([3]; LA positive sample, increasing PPACK concentrations (from 1.42)): 1.58
Screen-to-Confirm Ratio of dRVVT test ([4]; increasing PPACK concentrations (from 1.02)): 0.91
Confirm [5, 6]: 50.4 s
Confirm (Rc) [5, 6]: 1.00
S/C (NR) [5, 6]: 1.00
S/C (R) [5, 6]: 0.98
Screen [5, 6]: 49.6 s
Screen (Rs) [5, 6]: 1.00
Confirm ([5]; sample 0114 S01, FVDef (con)): 62.8 s
Confirm (Rc) ([5]; sample 0114 S01, FVDef (con)): 1.25
S/C (NR) ([5]; sample 0114 S01, FVDef (con)): 1.02
S/C (R) ([5]; sample 0114 S01, FVDef (con)): 1.01
Screen ([5]; sample 0114 S01, FVDef (con)): 63.3 s
Screen (Rs) ([5]; sample 0114 S01, FVDef (con)): 1.28
Confirm ([5]; sample 0114 S02, FVDef (con)): 54.2 s
Confirm (Rc) ([5]; sample 0114 S02, FVDef (con)): 1.08
S/C (NR) ([5]; sample 0114 S02, FVDef (con)): 0.88
S/C (R) ([5]; sample 0114 S02, FVDef (con)): 0.87
Screen ([5]; sample 0114 S02, FVDef (con)): 46.9 s
Screen (Rs) ([5]; sample 0114 S02, FVDef (con)): 0.95
Confirm [5, 7]: 47.9 s
Confirm (Rc) [5, 7]: 0.95
S/C (NR) [5, 7]: 1.05
S/C (R) [5, 7]: 1.04
Screen [5, 7]: 49.7 s
Screen (Rs) [5, 7]: 1.00
Confirm [5, 8]: 48.5 s
Confirm (Rc) [5, 8]: 0.96
S/C (NR) [5, 8]: 1.03
S/C (R) [5, 8]: 1.02
Screen [5, 8]: 49.3 s
Screen (Rs) [5, 8]: 0.99
Confirm [5, 9]: 49.2 s
Confirm (Rc) [5, 9]: 0.98
S/C (NR) [5, 9]: 1.00
S/C (R) [5, 9]: 0.98
Screen [5, 9]: 48.4 s
Screen (Rs) [5, 9]: 0.98
Confirm [5, 10]: 48.9 s
Confirm (Rc) [5, 10]: 0.97
S/C (NR) [5, 10]: 1.01
S/C (R) [5, 10]: 0.99
Screen [5, 10]: 48.6 s
Screen (Rs) [5, 10]: 0.98
Confirm ([5]; sample 0114 S07, FIXDef (con)): 50.5 s
Confirm (Rc) ([5]; sample 0114 S07, FIXDef (con)): 1.00
S/C (NR) ([5]; sample 0114 S07, FIXDef (con)): 0.97
S/C (R) ([5]; sample 0114 S07, FIXDef (con)): 0.95
Screen ([5]; sample 0114 S07, FIXDef (con)): 41.1 s
Screen (Rs) ([5]; sample 0114 S07, FIXDef (con)): 0.97
Confirm ([5]; sample 0114 S08, FIXDef (con)): 48.9 s
Confirm (Rc) ([5]; sample 0114 S08, FIXDef (con)): 0.97
S/C (NR) ([5]; sample 0114 S08, FIXDef (con)): 1.01
S/C (R) ([5]; sample 0114 S08, FIXDef (con)): 0.99
Screen ([5]; sample 0114 S08, FIXDef (con)): 48.5 s
Screen (Rs) ([5]; sample 0114 S08, FIXDef (con)): 0.98
Confirm ([5]; sample 0114 S09, FXDef (con)): 59.2 s
Confirm (Rc) ([5]; sample 0114 S09, FXDef (con)): 1.17
S/C (NR) ([5]; sample 0114 S09, FXDef (con)): 1.04
S/C (R) ([5]; sample 0114 S09, FXDef (con)): 1.03
Screen ([5]; sample 0114 S09, FXDef (con)): 60.7 s
Screen (Rs) ([5]; sample 0114 S09, FXDef (con)): 1.22
Confirm ([5]; sample 0114 S10, FXDef (con)): 51.4 s
Confirm (Rc) ([5]; sample 0114 S10, FXDef (con)): 1.02
S/C (NR) ([5]; sample 0114 S10, FXDef (con)): 1.01
S/C (R) ([5]; sample 0114 S10, FXDef (con)): 0.99
Screen ([5]; sample 0114 S10, FXDef (con)): 51.1 s
Screen (Rs) ([5]; sample 0114 S10, FXDef (con)): 1.03
Confirm ([5]; sample 0114 S11, FXIDef (con)): 49.7 s
Confirm (Rc) ([5]; sample 0114 S11, FXIDef (con)): 0.99
S/C (NR) ([5]; sample 0114 S11, FXIDef (con)): 1.00
S/C (R) ([5]; sample 0114 S11, FXIDef (con)): 0.98
Screen ([5]; sample 0114 S11, FXIDef (con)): 48.8 s
Screen (Rs) ([5]; sample 0114 S11, FXIDef (con)): 0.98
Confirm ([5]; sample 0114 S12, FXIDef (con)): 47.7 s
Confirm (Rc) ([5]; sample 0114 S12, FXIDef (con)): 0.95
S/C (NR) ([5]; sample 0114 S12, FXIDef (con)): 1.00
S/C (R) ([5]; sample 0114 S12, FXIDef (con)): 0.98
Screen ([5]; sample 0114 S12, FXIDef (con)): 46.8 s
Screen (Rs) ([5]; sample 0114 S12, FXIDef (con)): 0.94
Confirm ([5]; sample 0114 S13, FXIIDef (con)): 45.3 s
Confirm (Rc) ([5]; sample 0114 S13, FXIIDef (con)): 0.90
S/C (NR) ([5]; sample 0114 S13, FXIIDef (con)): 1.01
S/C (R) ([5]; sample 0114 S13, FXIIDef (con)): 0.99
Screen ([5]; sample 0114 S13, FXIIDef (con)): 44.9 s
Screen (Rs) ([5]; sample 0114 S13, FXIIDef (con)): 0.91
Confirm ([5]; sample 0114 S14, FXIIDef (acq)): 53.4 s
Confirm (Rc) ([5]; sample 0114 S14, FXIIDef (acq)): 1.06
S/C (NR) ([5]; sample 0114 S14, FXIIDef (acq)): 0.94
S/C (R) ([5]; sample 0114 S14, FXIIDef (acq)): 0.93
Screen ([5]; sample 0114 S14, FXIIDef (acq)): 49.4 s
Screen (Rs) ([5]; sample 0114 S14, FXIIDef (acq)): 1.00
Confirm ([5]; sample 0114 S15, LA Postive): 49.7 s
Confirm (Rc) ([5]; sample 0114 S15, LA Postive): 0.99
S/C (NR) ([5]; sample 0114 S15, LA Postive): 2.49
S/C (R) ([5]; sample 0114 S15, LA Postive): 2.45
Screen ([5]; sample 0114 S15, LA Postive): 121.8 s
Screen (Rs) ([5]; sample 0114 S15, LA Postive): 2.46
Confirm ([5]; sample 0114 S16, LA Postive): 51.7 s
Confirm (Rc) ([5]; sample 0114 S16, LA Postive): 1.03
S/C (NR) ([5]; sample 0114 S16, LA Postive): 2.70
S/C (R) ([5]; sample 0114 S16, LA Postive): 2.66
Screen ([5]; sample 0114 S16, LA Postive): 137.4 s
Screen (Rs) ([5]; sample 0114 S16, LA Postive): 2.77
Confirm ([5]; sample 0114 S17, LA Postive): 49.8 s
Confirm (Rc) ([5]; sample 0114 S17, LA Postive): 0.99
S/C (NR) ([5]; sample 0114 S17, LA Postive): 2.19
S/C (R) ([5]; sample 0114 S17, LA Postive): 2.15
Screen ([5]; sample 0114 S17, LA Postive): 107.3 s
Screen (Rs) ([5]; sample 0114 S17, LA Postive): 2.16

hirudin
Normalized ratio of dRVVT Assay ([3]; LA positive sample, 200 ng/ml hirudin alone): 1.72
Normalized ratio of dRVVT Assay ([3]; LA positive sample, 1000 ng/ml hirudin (1.39 without thrombin inhibitor)): 1.81
Screen-to-Confirm Ratio of dRVVT Assay ([3]; LA positive sample, 1000 ng/ml hirudin (1.41 in the absence of hirudin)): 2.14
Screen-to-Confirm Ratio of dRVVT Assay ([4]; 1000 ng/ml hirudin (1.02 in the absence of hirudin)): 1.18
